Source: patent US9523082B2, “Firefly luciferase” (priority 2014, dated 2016)
Where two headings read alike, the source gives them in different places.

System: SP2 luciferase (Luciola sp2 firefly luciferase), wild type, SEQ ID NO: 1
Assay: Km of SP2 luciferase for D-luciferin and ATP (luminescence kinetics, Michaelis-Menten fit)
Type: biochemical, Luciola sp2 (Malaysian firefly)
Conditions: for Km: 0.1 M Tris-HCl pH 8.0, MgSO4 8 mM in injected solution
Procedure: The measurements were carried out ten times for each sample, and the average of absorbency was used for the calculation.
A solution of 0.1 M Tris-HCl (pH 8.0) containing each of the purified luciferase, 4 mM of ATP, and 8 mM of MgSO4 was connected to the standard pump of the luminometer, and the measurements was carried out at the same time as addition of 50 μl of the solution to the well. A Luminescensor (ATTO) was used for the measurements. Measurements were repeated 3 times for each luciferin concentration.
The peak intensity of the obtained photo count value was plotted with respect to luciferin concentration S, defining the initial rate as V. The plots were subjected to curve fitting of Michaelis Menten type, thereby giving Km values. The curve fitting was performed by a nonlinear least-squares method, and the search of the parameter was performed by a Newton method.
Under various ATP concentrations, the luminous intensity of the obtained luciferase was measured. Based on the results, Km values with respect to ATP was determined.
Various 12 types of ATP solutions were prepared by adding ATP to 0.1 M Tris-HCl (pH 8.0). These solutions contain ATP at final concentration of 5, 10, 20, 40, 80, 160, 320, 480, 640, 800, 1280, 1600, or 1920 μM. These ATP solutions were each injected into 96-hole in a microplate at a volume of 50 μl. […] Measurement was repeated 3 times for each ATP concentration.
The peak intensities of the obtained photon count value were plotted with respect to ATP concentration S, with an initial rate V. The plots were subjected to curve fitting of Michaelis Menten type, thereby giving Km value. The curve fitting was performed by a nonlinear least-squares method, and the search of the parameter was performed by a Newton method.

SMILES	Km (D-luciferin 1 mM, read-out: Km ATP) [µM]	Km with respect to ATP, compared with known luciferase (FIG. 2) (comparison in words)	Km with respect to D-luciferin, compared with known luciferase (FIG. 2) (comparison in words)	Km (read-out: Km D-luciferin, ATP 4 mM) [µM]
Nc1ncnc2c1ncn2[C@@H]1O[C@H](COP(=O)(O)OP(=O)(O)OP(=O)(O)O)[C@@H](O)[C@H]1O [ATP]	188	higher Km values	–	–
O=C(O)[C@H]1CSC(c2nc3ccc(O)cc3s2)=N1 [D-luciferin]	–	–	higher Km values	4.25
